In patent US20230257385A1, “SALT AND SOLID FORMS OF TABERNANTHALOG” (priority 2021, published 2023):
Structures can show the parent of a compound that is named as a salt.

Columns and labels:
Type in all cases: physicochemical
[1] = Examination of variability of fusion temperature of sorbate Form A (DSC); details: listed as Experiment 13-Sample C1
Protocol: The factors that were assessed to explain the observed variability in fusion temperature found amongst Form A samples were sample loading, preferred orientation and particle size/homogeneity (Table 271). A weak relationship between sample loading and melt onset was observed, the remainder of the factors examined, appeared to be unrelated.
DSC data were collected from 25 to 220C at a scan rate of at 10° C. min^−1 (Table 292).

[2] = Stability of sorbate salt at 95% RH (KNO3) at 20° C. (Example 10, Experiment 10); details: XRPD
Protocol: The samples were maintained under equilibrium humidity of 95% RH at 20° C. and monitored at 5 day by XRPD and 10 day time points by ^1H NMR, XRPD, DSC, TGA and PLM.
Experiment 10-Sample A was open-capped, and Experiment 10-Sample B was open-capped inside double, cable-tied, electrostatic polythene bags (to mimic a typical packaging configuration) and both were placed inside the same humidity chamber at 95% RH at 20° C. The powders were finely divided and distributed evenly over the base of the vial, such that equal material coverage across the panel was observed. The samples were sub-sampled at intervals of t=0, 5 d and 10 d and analysed by XRPD, DSC, TGA and ^1H NMR, for evidence of phase change or chemical degradation

[3] = Equilibrium humidity evaluation 75% RH/40° C., 10 days (Example 8, Experiment 6); details: for change in chemical purity (trended HPLC): after 10 days; for powder diffraction pattern versus input (form stability): t=5 days and t=10 days
Outline: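 Tabernanthalog salt powders (100 mg) were spread evenly in open vials and held at 40 °C and 75% RH. Sub-samples taken at 5 and 10 days were analysed by ^1H NMR, HPLC, XRPD, DSC, TGA and PLM for phase change, chemical degradation and residual solvent.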

[4] = DSC 25-220° C. at 10° C. min^−1, batches of sorbate salt Form A
[5] = DSC 25 to 220C at 10° C. min−1, tabernanthalog sorbate Form A samples
[6] = listed as Tabernanthalog sorbate salt (Form A)
[7] = 75% RH/40° C., listed as Tabernanthalog sorbate salt (Form A)

SMILES: COc1ccc2c3c([nH]c2c1)CCN(C)CC3 [tabernanthalog sorbate salt]
- Endset [1, 4]: 144.5 °C
- melt enthalpy [1, 4]: −105.8 Jg^−1
- melt onset [1, 4]: 139.9 °C
- peak [1, 4]: 142.5 °C
- melt enthalpy [1, 5]: −105.78 Jg-1
- melt onset [1, 5]: 139.87 °C
- Endset ([1]; DSC melt endset, 25 to 220C at 10° C. min−1, tabernanthalog sorbate Form A samples): 144.46 °C
- peak ([1]; DSC melt peak, 25 to 220C at 10° C. min−1, tabernanthalog sorbate Form A samples): 142.50 °C
- form change on storage, double-bagged (closed) vial [2]: At t=10 d, Form A converted to Pattern #2
- form change on storage, open vial [2]: At t=5 d, Form A converted to Pattern #2
- form change on storage, double-bagged (closed) vial [2, 6]: after 10 days
- form change on storage, open vial [2, 6]: converted to Form C (Pattern #2) after 5 days
- CP (chemical purity) after storage ([3]; 75% RH at 40° C., 10 days): 99.70 % area
- change in chemical purity (trended HPLC) ([3]; 75% RH/40° C.): did not reduce significantly
- change in chemical purity (trended HPLC) [3, 7]: lowest decrease in chemical purity
- change in chemical purity (trended HPLC) ([3]; 75% RH/40° C., listed as tabernanthalog sorbate): lowest decrease in chemical purity
- water uptake / hydrate formation (TGA, DSC) ([3]; 75% RH/40° C., t=5 d and t=10 d): did not exhibit any water absorption events
- powder diffraction pattern versus input (form stability) ([3]; 75% RH/40° C.): matched the diffractogram of the input material
- powder diffraction pattern versus input (form stability) [3, 7]: Form A was stable
- Tabernanthalog RRT = 1.00 (trended HPLC data, chemical purity) ([3]; Sorbate salt, input before humidity exposure): 99.76
- CP (chemical purity) before storage ([3]; input of 6-D): 99.76 % area
